Patent publication US20150080475A1, “Memantine Protects Inflammation-Related Degeneration of Dopamine Neurons Through Inhibition of Over-Activated Microglia and Release of Neurotrophic Factors From Astroglia” (priority 2009, published 2015)

Test system: DA neurons
Test: MPP+-induced reduction in DA uptake in neuron-enriched cultures
Assay type: cell-based
Conditions: MPP+ 0.25 μM, seven days, neuron-enriched cultures
Procedure: Mesencephalic neuron-glia cultures were seeded (5×10^5/well) in 24 well plates precoated with poly D-lysine. Thirty-six hours postseeding, 5-10 μM cytosine β-D-arabinofuranoside was added to the culture. After 2 days, the cytosine β-D-arabinofuranoside was removed and replaced with fresh media. Neuron-enriched cultures are 98% pure, as indicated by ICC staining with OX-42 and GFAP antibodies. Neuron-enriched cultures were treated 7 days post-seeding. For microglia add-back cultures, the microglia were plated on top of the neuron-enriched culture at 6 days postseeding, resulting in the addition of either 10% (500 μL of 1×10^5) or 20% (500 μL of 2×10^5) microglia. […]
Cells were incubated in Krebs-Ringer buffer (16 mM NaH2PO4, 1.2 mM MgSO4, 1.3 mM EDTA, […], for 21 min at 37° C. with 1 μM [^3H] DA. Nonspecific uptake was blocked for DA with 10 μM mazindole. After incubation, cells were washed three times with 1 mL/well of ice-cold Krebs-Ringer buffer. Cells were then lysed with 0.5 mL/well of 1 N NaOH and mixed with 15 mL of scintillation fluid. Radioactivity was measured on a scintillation counter, where specific [^3H] DA uptake was calculated by subtracting the mazindole.
To determine whether the neuroprotective effect of MMT was dependent on the presence of glial cells, the effects of MMT on the neuron-enriched cultures were determined. […]

## C[n+]1ccc(-c2ccccc2)cc1 [MPP^+]
  reduction of DA uptake compared with control cultures: 31%
